Assay: Human HepG2 cell viability assay in 384 well format
Type: toxicity, cell-based
Set-up: dose 125 nL, time 70.5 hour; cytotoxicity at 70.5 h: concentration not given beside the values
Conditions: HepG2 cells, read-out: Inhibition

Row | SMILES | cytotoxicity at 70.5 h [%]
1 | CCc1nc(NC(=O)N(C)Cc2ccoc2)nn1C | -1.12
2 | CN1C(=O)[C@H]2CC[C@@H]1CN(C(=O)c1nnc3n1CCCCC3)C2 | -6.73
3 | CCNC(=O)CN1CCCC(c2ccc(C(=O)O)cc2)C1 (stereo not drawn) | 31.1
4 | CC(NS(C)(=O)=O)C(=O)N(C)Cc1csc(-c2ccccc2)n1 (stereo not drawn) | -13.9
5 | CC1CCCCN1C(=O)c1coc(COc2cccc3cnccc23)n1 (stereo not drawn) | -6.78
6 | Cc1ccccc1CSc1nc(N)cc(N2CCC(CC(N)=O)CC2)n1 | -3.38
7 | CC(=O)Nc1ccc(Cl)c(C(=O)N(C)C(C)c2ccon2)c1 (stereo not drawn) | 5
8 | CCC(CO)N(Cc1cccs1)C(=O)Cc1ccc(O)cc1 (stereo not drawn) | 16.3
9 | CN1[C@@H](c2ccccc2)[C@@H](C(=O)NCc2ccccn2)C[C@@]1(C)C(=O)O | 23
10 | Cc1ccc(-c2cn[nH]c2C2CCCN(c3cc(N)ncn3)C2)cc1 (stereo not drawn) | 5.4
11 | CS(=O)(=O)N1C[C@@H]2CC[C@H](C1)N(C(=O)CCc1ccsc1)C2 | -2.59
12 | Cc1nc(C)c(CC(=O)N2CCCN(CC3CC3)C(C(C)C)C2)c(=O)[nH]1 (stereo not drawn) | 0.531
13 | CCNc1ncc(C(=O)N2CCOC(CCCC(C)C)C2)cn1 (stereo not drawn) | -7.7
14 | CC(C)N(Cc1ccc(C(F)(F)F)nc1)Cc1cnn(C)c1 | -6.85
15 | Cc1cnccc1N1CCCN(C(=O)CCn2ccnc2C)CC1 | -3.98
16 | CN(CCc1cn[nH]c1)C(=O)C(c1ccc(F)cc1)N(C)C (stereo not drawn) | -9.33
17 | Cc1nc2c(c(=O)[nH]1)CN(C(=O)CCC1CCCN(C)C1)C2 (stereo not drawn) | -4.89
18 | Cn1c(-c2ccccc2Cl)nc2cc(C(=O)NC(CO)CO)cnc21 | -8.01
19 | OCCOCCNCC1(c2ccc(F)cc2)CCOC1 (stereo not drawn) | -0.024
20 | CC(C)NC(=O)[C@@H]1C[C@@H](N)CN1C(=O)CCSCc1ccc(F)cc1 | -3.93
21 | CC(COc1ccccc1)NCc1nncn1C1CCCCC1 (stereo not drawn) | 7.54
22 | O=C(O)[C@@H]1CN(CC(=O)N2CCCCC2)C[C@H]1c1ccc(F)cc1 | -2.52

Row | SMILES | cytotoxicity at 70.5 h [%]
23 | Fc1cccc(-n2nc(C3CC3)nc2CCn2cnnn2)c1 | -3.9
24 | Cc1ccc(CN(C)Cc2cnc(N3CCOCC3)s2)o1 | 22.4
25 | CN(Cc1cnccn1)C(=O)[C@@]12CNC[C@@H]1CN(Cc1ccccc1)C2 | -11.2
26 | O=C(Nc1cnc2n1CCCC2)C1CCNCC1 | 26.5
27 | CCc1cnc(C)nc1NC1CC(=O)N(CC2CCCCC2)C1 (stereo not drawn) | -8.14
28 | O=C1NCCN(C(=O)c2cn3ccsc3n2)C1Cc1ccccc1 (stereo not drawn) | -5.01
29 | O=C([C@@H]1CCCO1)N1CCC(Cn2cc(-c3ccsc3)nn2)CC1 | -7.52
30 | O=C(O)C1(Oc2ccc3ccccc3c2)CCN(c2ncccn2)CC1 | -0.873
31 | O=C(c1ccc(C(F)(F)F)cc1)N1C[C@@H](CN2CCCCC2)[C@@H](CO)C1 | 3.19
32 | COc1nc2c(cc1C(=O)N(C)Cc1n[nH]c3c1CCCC3)CCC2 | -6.28
33 | Cc1ccccc1N1CCN(C(=O)c2cnn(C(C)C)c2)C(C)C1 (stereo not drawn) | -4.79
34 | CCn1c(Cn2cncn2)nnc1C1CCN(C2CCNCC2)CC1 | -5.11
35 | CCc1cc(N2CCN(C(C)=O)CC2)n2nc(C)c(C)c2n1 | 10.6
36 | O=c1cc(CN2CC[C@@]3(O)CCCC[C@H]3C2)c2cccc3c2n1CCC3 | -11.8
37 | CCOc1ccc(CN2CC[C@@](C)(O)[C@@H](Cc3ccccc3)C2)cn1 | -1.83
38 | CCCOCC1CCN(C(=O)Cn2ncc(N3CCCC3)cc2=O)C1 (stereo not drawn) | 26.8
39 | CN1CC2(CCN(C(=O)c3cccc(-n4cccn4)c3)CC2)OC1=O | 21.3
40 | CCn1cc(CN2CCCN(C3Cc4ccccc4C3)CC2)cn1 | -7.57
41 | O=C(c1cc(-c2ccco2)nc2c(Cl)cccc12)N1CC[C@H]2CNC[C@H]21 | 19.8
42 | Cc1ncc2c(c1CNC(=O)C1(C)CCCCO1)CCNC2 (stereo not drawn) | 0.49
43 | COc1nccnc1N1CCN(Cc2cccc(F)c2)C(=O)C1 | 16.1
